# Laboratory results as given in US8168651B2, “Protein kinase modulators” (Cylene Pharmaceuticals, Inc., priority 2008, dated 2012).
# Read-outs that look alike come from different tables or passages of the source.
# Experiments:
# [1] = system: HCT-116 human colorectal carcinoma cells; experiment: Cell-proliferation assay using Alamar Blue dye; assay type: cell-based; conditions: Homo sapiens;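 also: cells exposed to compound for about 4 days, then Alamar Blue added and dye fluorescence read after about 4 h, compared with medium-only control wells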
# recombinant human PIM1 = recombinant human PIM1 (Homo sapiens (Human), UniProt P11309); experiment: PIM-1 kinase activity in cell-free in vitro assay; assay type: biochemical; conditions: for inhibition at 0.5 µM: 500 nM compound, read-out: PIM-1: % inh 500 nM
# Sequence of recombinant human PIM1 (P11309 whole entry): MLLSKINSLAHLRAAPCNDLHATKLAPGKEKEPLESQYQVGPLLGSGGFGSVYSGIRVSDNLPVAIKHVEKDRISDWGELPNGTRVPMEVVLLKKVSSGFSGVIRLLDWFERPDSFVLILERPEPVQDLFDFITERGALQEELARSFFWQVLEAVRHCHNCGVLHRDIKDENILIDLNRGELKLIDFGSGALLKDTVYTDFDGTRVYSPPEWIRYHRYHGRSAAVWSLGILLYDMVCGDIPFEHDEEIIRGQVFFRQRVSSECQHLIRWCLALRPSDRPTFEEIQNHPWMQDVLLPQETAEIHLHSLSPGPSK
# K-562 [2] = experiment: Cell proliferation modulatory activity, K-562; assay type: cell-based; conditions: Homo sapiens, K562
# MV-4-11 [3] = experiment: Cell proliferation modulatory activity, MV-4-11; assay type: cell-based; conditions: Homo sapiens, MV4-11
# K-562 [4] = experiment: Cell proliferation modulatory activity, K-562; assay type: cell-based; conditions: Homo sapiens, K562; Table 45; read-out: K-562 IC50
# [5] = system: MiaPaca human pancreatic carcinoma cells; experiment: Cell-proliferation assay using Alamar Blue dye; assay type: cell-based; conditions: MIA PaCa-2, Table 45
# Method: A representative cell-proliferation assay protocol using Alamar Blue dye (stored at 4° C., use 20 ul per well) is described hereafter.
# • a. Split and trypsinize cells. • b. Count cells using hemocytometer. • c. Plate 4,000-5,000 cells per well in 100 μl of medium and seed into a 96-well plate according to the following plate layout. Add cell culture medium only to wells B10 to B12. Wells B1 to B9 have cells but no compound added.
# • d. Add 100 μl of 2× drug dilution to each well in a concentration shown in the plate layout above. At the same time, add 100 μl of media into the control wells (wells B10 to B12). Total volume is 200 μl/well. • e. Incubate four (4) days at 37° C., 5% CO2 in a humidified incubator. • f. Add 20 μl Alamar Blue reagent to each well. • g. Incubate for four (4) hours at 37° C., 5% CO2 in a humidified incubator. • h. Record fluorescence at an excitation wavelength of 544 nm and emission wavelength of 590 nm using a microplate reader.
# In the assays, cells are cultured with a test compound for approximately four days, the dye then is added to the cells and fluorescence of […] dye is detected after approximately four hours. Different types of cells can be utilized in the assays (e.g., HCT-116 human colorectal carcinoma cells, PC-3 human prostatic cancer cells and MiaPaca human pancreatic carcinoma cells). Anti-proliferative effects of representative compounds are provided hereafter
# MDAMB231 = MDAMB231 IC50; assay type: cell-based; conditions: Homo sapiens, MDA-MB-231; Table 45
# Flt3 = Flt3 (Homo sapiens (Human), UniProt P36888); experiment: FLT-3 kinase activity in cell free in vitro assay; assay type: biochemical; conditions: cell-free; read-out: FLT-3
# Sequence of Flt3 (P36888 27-993): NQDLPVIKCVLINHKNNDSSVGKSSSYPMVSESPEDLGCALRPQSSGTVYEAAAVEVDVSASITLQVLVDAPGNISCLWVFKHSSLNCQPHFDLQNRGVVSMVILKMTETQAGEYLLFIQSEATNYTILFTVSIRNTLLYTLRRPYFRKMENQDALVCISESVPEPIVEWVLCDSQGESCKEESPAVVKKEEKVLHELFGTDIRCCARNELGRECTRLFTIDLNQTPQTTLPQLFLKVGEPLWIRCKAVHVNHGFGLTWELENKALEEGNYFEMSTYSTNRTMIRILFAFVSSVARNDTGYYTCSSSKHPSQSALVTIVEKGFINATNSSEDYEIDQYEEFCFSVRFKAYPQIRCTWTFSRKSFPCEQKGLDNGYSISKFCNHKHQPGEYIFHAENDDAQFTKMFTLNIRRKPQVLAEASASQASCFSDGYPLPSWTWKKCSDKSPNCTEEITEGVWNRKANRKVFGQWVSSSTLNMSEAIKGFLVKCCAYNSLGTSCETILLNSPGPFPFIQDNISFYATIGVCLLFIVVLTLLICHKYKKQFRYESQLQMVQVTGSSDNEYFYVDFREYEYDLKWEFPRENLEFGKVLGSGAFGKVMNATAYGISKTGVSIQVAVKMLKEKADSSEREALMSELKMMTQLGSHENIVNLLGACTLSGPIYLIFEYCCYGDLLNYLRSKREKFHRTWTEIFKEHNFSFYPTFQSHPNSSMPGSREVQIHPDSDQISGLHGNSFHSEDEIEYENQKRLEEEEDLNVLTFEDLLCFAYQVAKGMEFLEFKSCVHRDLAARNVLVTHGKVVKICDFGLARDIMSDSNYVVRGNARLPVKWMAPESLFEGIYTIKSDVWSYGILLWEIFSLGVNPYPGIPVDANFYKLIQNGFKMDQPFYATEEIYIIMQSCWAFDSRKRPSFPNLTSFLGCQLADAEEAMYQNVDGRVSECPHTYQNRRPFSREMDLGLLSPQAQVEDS
# MV-4-11 [6] = experiment: Cell proliferation modulatory activity, MV-4-11; assay type: cell-based; conditions: Homo sapiens, MV4-11; Table 45; read-out: MV-4-11 IC50
# recombinant human CK2 = recombinant human CK2 (Homo sapiens (Human), UniProt P68400); experiment: CK2 assay (cell-free, 33P-ATP filter plate); assay type: biochemical; conditions: cell-free
# Sequence of recombinant human CK2 (P68400 whole entry): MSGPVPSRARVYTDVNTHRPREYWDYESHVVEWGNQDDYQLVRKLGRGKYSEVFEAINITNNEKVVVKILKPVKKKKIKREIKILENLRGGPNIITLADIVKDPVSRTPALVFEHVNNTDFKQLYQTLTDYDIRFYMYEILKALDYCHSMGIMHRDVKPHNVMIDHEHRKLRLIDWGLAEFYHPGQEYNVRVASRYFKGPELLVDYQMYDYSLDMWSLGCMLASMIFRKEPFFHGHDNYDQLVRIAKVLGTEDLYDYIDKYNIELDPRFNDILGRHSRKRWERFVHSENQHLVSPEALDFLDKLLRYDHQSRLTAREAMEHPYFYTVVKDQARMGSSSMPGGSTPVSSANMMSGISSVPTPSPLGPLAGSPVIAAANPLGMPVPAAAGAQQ
# Sequence of recombinant human CK2 (P67870 whole entry partner): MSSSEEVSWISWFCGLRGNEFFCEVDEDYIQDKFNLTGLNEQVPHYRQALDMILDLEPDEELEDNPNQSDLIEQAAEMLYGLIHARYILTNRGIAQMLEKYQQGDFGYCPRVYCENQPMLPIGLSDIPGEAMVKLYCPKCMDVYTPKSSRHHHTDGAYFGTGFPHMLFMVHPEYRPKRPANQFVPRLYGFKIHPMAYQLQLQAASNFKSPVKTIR
# PIM2 = PIM2 (Homo sapiens (Human), UniProt Q9P1W9); experiment: PIM2 IC50; assay type: biochemical; conditions: Table 45
# Sequence of PIM2 (Q9P1W9 whole entry): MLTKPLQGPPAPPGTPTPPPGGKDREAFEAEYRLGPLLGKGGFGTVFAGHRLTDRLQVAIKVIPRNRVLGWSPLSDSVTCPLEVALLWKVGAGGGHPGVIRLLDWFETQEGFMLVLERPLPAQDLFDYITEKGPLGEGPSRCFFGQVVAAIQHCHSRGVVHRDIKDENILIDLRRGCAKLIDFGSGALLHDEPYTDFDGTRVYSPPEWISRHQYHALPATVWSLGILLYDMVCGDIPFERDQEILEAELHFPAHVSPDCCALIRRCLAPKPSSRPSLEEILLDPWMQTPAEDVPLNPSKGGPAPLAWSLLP
# phosphoBAD ser 112 = phosphoBAD ser 112 IC50; assay type: cell-based; conditions: read-out: phosphoBAD ser 112 IC50; Table 45
# [7] = HCT-116, read-out: HCT-116 (uM), cell proliferation modulatory activity, HCT-116, second column
# [8] = HCT-116, HCT-116, second column, read-out: HCT-116 (uM), cell proliferation modulatory activity
# [9] = HCT-116, read-out: HCT-116 (uM), cell proliferation modulatory activity, HCT-116, first column
SMILES,inhibition at 0.5 µM (recombinant human PIM1; cell-free) [%],IC50 (recombinant human PIM1; cell-free) [µM],IC50 (K-562 [2]) [µM],IC50 (MV-4-11 [3]) [µM],IC50 (K-562 [4]) [µM],IC50 [5] [µM],further results
Brc1cccc(Nc2nc3cc(-c4nnn[nH]4)ccc3c3sccc23)c1,65.9,0.22,> 10,0.549,–,–,"IC50 [1, 7]: > 10 µM"
FC(F)(F)c1cccc(Nc2nc3cc(-c4nnn[nH]4)ccc3c3sccc23)c1,59,0.205,> 10,0.093,–,–,"IC50 [1, 8]: > 10 µM; IC50 (recombinant human CK2; 15 um ATP, read-out: CK2 (15 um ATP) IC50): 0.458 µM; IC50 (recombinant human CK2; 20 um ATP, read-out: CK2 (20 um ATP) IC50): 0.406 µM; IC50 (Flt3): > 0.4 µM"
c1cc(-c2nc[nH]n2)c2nc(NCC3CC3)c3ccncc3c2c1,–,–,–,–,> 10,< 10,IC50 (MV-4-11 [6]): < 0.1 µM; IC50 (PIM2): < 0.5 µM; IC50 (recombinant human PIM1; Table 45): < 0.1 µM; IC50 (phosphoBAD ser 112): < 0.1 µM
CN(C)CCNc1nc2cc(C(=O)O)ccc2c2sccc12,83.4,–,> 10,> 10,–,–,"IC50 [1, 9]: 10 µM"
CN(C)CCNC(=O)Cc1cccc(Nc2nc3cc(C(=O)O)ccc3c3sccc23)c1,69.2,0.283,> 10,> 10,–,–,"IC50 [1, 8]: > 10 µM; inhibition at 0.5 µM (recombinant human CK2; 500 nM compound, read-out: CK2: % inh 500 nM): 53.3%"
O=C(O)c1ccc2c(c1)nc(Nc1cccc(C(F)(F)F)c1)c1ccsc12,74.7,0.197,> 10,> 10,–,–,"IC50 [1, 7]: > 10 µM"
N#Cc1cc(F)cc(Nc2nc3cc(C(=O)O)ccc3c3sccc23)c1,87,0.252,> 10,1.46,–,–,"IC50 [1, 7]: > 10 µM"
NS(=O)(=O)c1cccc(Nc2nc3cc(-c4nnn[nH]4)ccc3c3sccc23)c1,83.9,0.088,> 10,> 10,–,–,"IC50 [1, 7]: 10 µM"
O=C(O)c1ccc2c(c1)nc(Nc1ccc(Cl)cc1)c1ccsc12,69.1,0.289,> 10,0.258,–,–,"IC50 [1, 9]: 10 µM"
c1ccc(Nc2nc3cc(-c4nnn[nH]4)ccc3c3sccc23)cc1,70.9,0.262,> 10,1.09,–,–,"IC50 [1, 9]: 10 µM"
Fc1cc(F)cc(Nc2nc3cc(-c4nnn[nH]4)ccc3c3sccc23)c1,86.9,0.414,> 10,2.2,–,–,"IC50 [1, 7]: > 10 µM"

# Second part, led by results:
inhibition at 0.5 µM (recombinant human PIM1; cell-free) [%],IC50 (recombinant human PIM1; cell-free) [µM],IC50 (K-562 [2]) [µM],IC50 (MV-4-11 [3]) [µM],IC50 (K-562 [4]) [µM],IC50 [5] [µM],SMILES,further results
21.9,1.02,4.01,6.45,–,–,O=C(O)c1ccc2c(c1)nc(Nc1ccccc1)c1ccncc12,–
–,–,–,–,< 1,< 1,Cc1ccccc1Nc1nc2c(-c3nnc[nH]3)cccc2c2cnccc12,IC50 (MDAMB231): > 10 µM
48.6,0.863,8.2,0.032,–,–,Clc1cccc(Nc2nc3cc(-c4nnn[nH]4)ccc3c3cnccc23)c1,IC50 (Flt3): 0.305 µM
–,–,–,–,> 10,> 10,NC(=O)c1cccc2c1nc(Nc1cccc(Cl)c1)c1cnccc12,IC50 (MV-4-11 [6]): > 10 µM; IC50 (MDAMB231): > 10 µM; IC50 (recombinant human PIM1; Table 45): < 0.5 µM
–,–,–,–,< 5,< 0.5,Clc1ccccc1Nc1nc2c(-c3nnc[nH]3)cccc2c2cnccc12 [drawing 2209],IC50 (MDAMB231): < 0.5 µM; IC50 (PIM2): < 0.1 µM
71.4,0.213,> 10,0.226,–,–,N#Cc1cccc(Nc2nc3cc(C(=O)O)ccc3c3sccc23)c1,–
–,–,–,–,< 5,< 5,FC(F)(F)c1cccc(Nc2nc3c(-c4nnc[nH]4)cccc3c3cnccc23)c1,IC50 (MV-4-11 [6]): < 0.5 µM; IC50 (PIM2): > 1.1 µM; IC50 (recombinant human PIM1; Table 45): < 0.5 µM; IC50 (phosphoBAD ser 112): < 1 µM
–,–,–,–,< 0.5,< 1,Fc1ccccc1Nc1nc2c(-c3nnc[nH]3)cccc2c2cnccc12,IC50 (MV-4-11 [6]): < 0.1 µM; IC50 (PIM2): < 0.1 µM; IC50 (recombinant human PIM1; Table 45): < 0.1 µM; IC50 (phosphoBAD ser 112): < 5 µM
